# According to PubChem BioAssay (NCI):
#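 Tested at 5 concentrations; 48 h exposure; 96-well plates; endpoints linearly interpolated, else capped at highest concentration. At the TGI there is no net growth.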
# Legend:
# Assay in all cases: DTP human tumour cell line panel, 48 h
# EKVX NSCLC = test system: EKVX NSCLC
# HL-60(TB) leukemia = test system: HL-60(TB) leukemia
# RXF 393 renal = test system: RXF 393 renal
# NCI-H522 lung = test system: NCI-H522 lung
# PC-3 prostate = test system: PC-3 prostate
# KM12 colon = test system: KM12 colon
# COLO 205 colon = test system: COLO 205 colon
# HS 578T breast = test system: HS 578T breast
# SF-268 CNS = test system: SF-268 CNS
# OVCAR-3 ovarian = test system: OVCAR-3 ovarian
# SK-MEL-28 melanoma = test system: SK-MEL-28 melanoma
# SN12C renal = test system: SN12C renal
# OVCAR-8 ovarian = test system: OVCAR-8 ovarian
# SNB-75 CNS = test system: SNB-75 CNS
# BT-549 breast = test system: BT-549 breast
# SNB-19 CNS = test system: SNB-19 CNS
SMILES,TGI (EKVX NSCLC) [µM],TGI (HL-60(TB) leukemia) [µM],TGI (RXF 393 renal) [µM],TGI (NCI-H522 lung) [µM],TGI (PC-3 prostate) [µM],TGI (KM12 colon) [µM],TGI (COLO 205 colon) [µM],TGI (HS 578T breast) [µM],TGI (SF-268 CNS) [µM],TGI (OVCAR-3 ovarian) [µM],TGI (SK-MEL-28 melanoma) [µM],TGI (SN12C renal) [µM],TGI (OVCAR-8 ovarian) [µM],TGI (SNB-75 CNS) [µM],TGI (BT-549 breast) [µM],TGI (SNB-19 CNS) [µM]
CN(C)CCNc1ncnc2nc(-c3ccccc3)c(-c3ccccc3)nc12,> 100,> 100,> 100,> 100,> 100,> 100,> 100,> 100,> 100,> 100,> 100,> 100,> 100,> 100,> 100,
Cc1ccc(NC(=O)CC(=O)N2N=C(N(c3ccccc3)c3ccccc3)CC2c2ccccc2)cc1 (stereo unspecified),> 100,> 100,> 100,> 100,> 100,> 100,> 100,86,> 100,> 100,> 100,,> 100,> 100,> 100,> 100
CC(=O)Nn1c(Cc2ccc(Cl)cc2)nn(C)c1=O,> 100,> 100,,> 100,> 100,> 100,> 100,> 100,> 100,> 100,> 100,> 100,> 100,> 100,> 100,> 100
c1ccc(C2(c3cc4ccccc4[nH]3)OCCO2)nc1,> 100,> 100,> 100,,> 100,> 100,> 100,> 100,> 100,> 100,> 100,,> 100,> 100,> 100,> 100
CC(C)(C)OC(=O)NC(Cc1ccc(OC(C)(C)C)cc1)C(=O)N[C@H]1CC[C@H](C(=O)O)C1 (stereo partly specified),> 100,> 100,,> 100,> 100,> 100,> 100,> 100,> 100,,> 100,> 100,> 100,> 100,> 100,> 100
CC(NC1=NCCO1)c1ccsc1 (stereo unspecified),> 100,53.3,85.8,35,57.8,36.1,35.3,33.9,,80.3,43,,77.7,47.3,> 100,> 100
COc1ccc(C[C@@H]2OC3(C=CC(=O)CC3Sc3ccccc3)O[C@H]2Cc2ccc(OC)cc2)cc1 (stereo partly specified),,6.06,0.348,,3.95,5.63,3.36,4.19,1.75,3.15,3.35,5.22,0.966,3.05,1.49,10.3
O=[N+]([O-])c1ccccc1S(=O)(=O)c1cccc2c1NCCC2,> 100,> 100,> 100,,> 100,> 100,> 100,> 100,> 100,> 100,> 100,> 100,> 100,> 100,> 100,> 100
COc1ccc(/C=N/NS(=O)(=O)c2ccc(/C=C3\NC(=O)NC3=O)cc2)cc1,> 100,> 100,> 100,,> 100,> 100,> 100,> 100,86.9,> 100,> 100,> 100,> 100,77.9,> 100,> 100
C=C1[C@@H](OC(C)=O)/C=C/C2C3C(=O)[C@@](C)(OC(C)=O)[C@H]([C@H](OC(C)=O)[C@]4(O)[C@@H](C)C(=O)O[C@H]4[C@H]1Cl)[C@@]23C (stereo partly specified),> 100,,> 100,> 100,> 100,> 100,> 100,> 100,> 100,> 100,> 100,> 100,> 100,> 100,> 100,> 100
O=S(=O)(Cc1ccccc1)c1nnc(S(=O)(=O)c2ccc(Cl)cc2)s1,62,,33.8,30.8,46.7,> 100,36.6,39.8,63.4,58.6,44,46.7,42.8,32.5,41.6,60.2
